Assay results published in patent US20080300221A1, “Contact Lens Care Composition” (priority 2005, published 2008).

Legend:
[1] = system: cysts of A. castellani; assay: Susceptibility test for Acanthamoeba cysts (viable cells on non-nutrient agar plates after soaking in contact lens solution); assay type: cell-based, A. castellanii; design: key: +: viable cells; −: no viable cells; conditions: after 8 hours soaking; 10^3 cysts; plates incubated at 30° C. for 14 days; Miltefosine alone tested at 80 μM
Procedure: The activity of various multi-purpose contact lens solutions (for cleaning, rinsing, storing and disinfecting a contact lens while the lens is not worn) was tested against cysts of A. castellani.
Contact lens disinfection solutions tested (Table 1) were purchased from local retail stores. In case of the H2O2 based systems, neutralization of the 3% hydrogen peroxide is achieved within 6 hours by a catalytic platinum disk which is located in the contact lens storage case according to the manufacturer's instructions. Miltefosine was dissolved in 5% Ethanol (2 mM stock solution) and tested at 80 μM in Acanthamoeba medium (PYG) or in contact lens disinfection medium.
A. castellanii, was isolated from a patient suffering from a severe Acanthamoeba keratitis. Isolation was achieved by inoculating corneal epithelium onto non-nutrient agar plates covered with a 48-h-old culture of Escherichia coli. The isolate was cloned by transferring a single cyst onto a fresh plate with a micromanipulator. Axenisation was achieved by harvesting cysts from parallel cultures and incubating them in 3% HCl overnight in order to eliminate coexisting bacteria. […] The cysts were harvested by centrifugation (500 g/7 minutes), resuspended in sterile 0.9% NaCl and counted in a BurkerTurk haemocytometer. […]

[2] = system: Acanthamoeba; conditions: cited from earlier work

With CCCCCCCCCCCCCCCCOP(=O)([O-])OCC[N+](C)(C)C [Miltefosine, 1-hexadecylphosphorylcholine] the “Viable Acanthamoeba cells after disinfection with commercially available disinfectants” value [1] was “−”.

In the case of [H]/N=C(\N/C(=N/[H])NCCCCCCNC(=N)NC(=N)Nc1ccc(Cl)cc1)Nc1ccc(Cl)cc1 [chlorhexidine], the “Effectiveness against Acanthamoeba among contact lens disinfectants” value [2] is given as “most effective”.
